Data reported in patent US8188090B2, “Naphthylacetic acids” (Hoffman-La Roche Inc., priority 2008, dated 2012).

The molecules below were run against T1, human CRTH2 (Homo sapiens, UniProt Q9Y5Y4) (assay: Human CRTH2 Receptor Binding Assay (whole cell, [3H]ramatroban)). Settings: whole CHO-K1 cells stably expressing human CRTH2 and G-alpha16; 20 nM [3H]ramatroban; 1 hour, room temperature.
T1 sequence (Q9Y5Y4 1-395): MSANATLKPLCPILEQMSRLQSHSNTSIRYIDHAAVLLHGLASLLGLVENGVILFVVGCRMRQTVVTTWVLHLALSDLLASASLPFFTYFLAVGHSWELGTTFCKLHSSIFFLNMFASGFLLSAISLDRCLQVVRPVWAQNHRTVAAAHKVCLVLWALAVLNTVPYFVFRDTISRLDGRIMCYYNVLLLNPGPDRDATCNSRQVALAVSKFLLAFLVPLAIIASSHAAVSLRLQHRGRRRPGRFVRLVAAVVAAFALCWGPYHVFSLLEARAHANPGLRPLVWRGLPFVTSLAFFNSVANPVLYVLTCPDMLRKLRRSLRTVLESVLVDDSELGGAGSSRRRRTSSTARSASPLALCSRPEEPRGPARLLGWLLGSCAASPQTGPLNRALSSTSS
Set-up: expressed in transfected cells; host or cells: CHO-K1
Description: A whole cell receptor binding assay using [^3H]ramatroban as the competing radioactive ligand was employed to evaluate the compound binding activity to human CRTH2. The radioactive ligand [^3H]ramatroban was synthesized according to Sugimoto et. al. (Eur. J. Pharmacol. 524, 30-37, 2005) to a specific activity of 42 Ci/mmol.
A cell line stably expressing human CRTH2 was established by transfecting CHO-K1 cells with two mammalian expression vectors that harbored human CRTH2 and G-alpha16 cDNAs, respectively, using FuGene® 6 transfection reagent (from Roche). Stable clones expressing CRTH2 were selected by staining each clone with BM16 (BD Pharmingen™ from BD Biosciences, a division of Becton, Dickinson and Company), which is a rat monoclonal antibody to human CRTH2. The cells were maintained as monolayer cultures in Ham's F-12 medium containing 10% fetal bovine serum, 100 units/mL penicillin, 100 μg/mL streptomycin, 2 mM glutamine, 0.5 mg/mL G418 (geneticin) for CRTH2, and 0.2 mg/mL hygromycin-B (for G-alpha 16). For whole cell receptor binding assay, the monolayer cells were rinsed once with PBS (phosphate buffered saline), dissociated using ethylenediaminetetraacetate (Versene™ EDTA from Lonza Inc.), and suspended in PBS containing 10 mM MgCl2 and 0.06% BSA (bovine serum albumin) at 1.5×10^6 cells/mL.
The binding reactions (0.2 mL) were performed in 96-well plates at room temperature in PBS containing 1.5×10^5 cells, 10 mM MgCl2, 0.06% BSA, 20 nM [^3H]ramatroban, and test compound at various concentrations. After 1 hour of binding reactions, the cells were harvested on GF™/B filter microplates (microtiter plates with embedded glass fiber from PerkinElmer, Inc.) and washed 5 times with PBS using a Filtermate™ Harvester (a cell harvester that harvests and washes cells from microplates from PerkinElmer, Inc.). The radioactivities bound to the cells were determined using a microplate scintillation counter (TopCount® NXT, from PerkinElmer, Inc.) after adding 50 μL of Microscint™ 20 scintillation fluid (from PerkinElmer, Inc.) to each well of the filter plates. The radioactivity from non-specific binding was determined by replacing compound with 10 μM of 15(R)-15-methyl PGD2 (from Cayman Chemical Company) in the reaction mixtures. The radioactivity bound to the cells in the absence of compound (total binding) was determined by replacing compound with 0.25% of DMSO (dimethyl sulfoxide) in the reaction mixture. Specific binding data were obtained by subtracting the radioactivity of non-specific binding from each binding data.
The IC50 value is defined as the concentration of the tested compound that is required for 50% inhibition of total specific binding. In order to calculate the IC50 value, the percent inhibition data were determined for 7 concentrations for each compound. The percent inhibition for a compound at each concentration was calculated according to the following formula, [1-(specific binding in the presence of compound)/(total specific binding)]×100. The IC50 value was then obtained by fitting the percent inhibition data to a sigmoidal dose-response (4 parameter logistic) model in the XLfit® software Excel add-in program [from ID Business Solutions Ltd., model 205, where F(x)=(A+(B−A)/(1+((C/x)^D)))].

| IC50 | SMILES |
| --- | --- |
| 4 nM | O=C(O)Cc1cc(OC2CCN(C(=O)NCCc3ccccc3)CC2)c2cc(F)ccc2c1 [Example 6-5, [6-Fluoro-4-(1-phenethylcarbamoyl-piperidin-4-yloxy)-naphthalen-2-yl]-acetic acid] |
| 26.8 nM | Cc1ccc(N2CCN(C(=O)c3c(C)c(CC(=O)O)cc4ccc(F)cc34)CC2)cc1 [Example 2-16, [6-Fluoro-3-methyl-4-(4-p-tolyl-piperazine-1-carbonyl)-naphthalen-2-yl]-acetic acid] |
| 15.5 nM | Cc1c(CC(=O)O)cc2ccc(F)cc2c1C(=O)N1CCN(S(=O)(=O)C(C)C)CC1 [Example 1-4, {6-Fluoro-3-methyl-4-[4-(propane-2-sulfonyl)-piperazine-1-carbonyl]-naphthalen-2-yl}-acetic acid] |
| 1.7 nM | O=C(O)Cc1cc(C(=O)N2CCN(S(=O)(=O)c3ccccc3)CC2)c2cc(OC(F)(F)F)ccc2c1 [Example 1-19, [4-(4-Benzenesulfonyl-piperazine-1-carbonyl)-6-trifluoromethoxy-naphthalen-2-yl]-acetic acid] |
| 3 nM | O=C(O)Cc1cc(OC2CCN(C(=O)Nc3cccc(F)c3)CC2)c2cc(F)ccc2c1 [Example 6-3, {6-Fluoro-4-[1-(3-fluoro-phenylcarbamoyl)-piperidin-4-yloxy]-naphthalen-2-yl}-acetic acid] |
| 4.8 nM | Cc1c(CC(=O)O)cc2ccc(F)cc2c1C(=O)N1CCN(S(=O)(=O)c2ccccc2F)CC1 [Example 1-14, {6-Fluoro-4-[4-(2-fluoro-benzenesulfonyl)-piperazine-1-carbonyl]-3-methyl-naphthalen-2-yl}-acetic acid] |
| 21.2 nM | Cc1c(CC(=O)O)cc2ccc(F)cc2c1C(=O)N1CCN(S(C)(=O)=O)CC1 [Example 1-3, [6-Fluoro-4-(4-methanesulfonyl-piperazine-1-carbonyl)-3-methyl-naphthalen-2-yl]-acetic acid] |
| 45.1 nM | CC(C)(C)OC(=O)N1CCC(Oc2cc(CC(=O)O)cc3ccc(F)cc23)CC1 [Example 3-1, 4-(3-Carboxymethyl-7-fluoro-naphthalen-1-yloxy)-piperidine-1-carboxylic acid tert-butyl ester] |
| 6.5 nM | CCCS(=O)(=O)N1CCN(C(=O)c2cc(CC(=O)O)cc3ccc(F)cc23)CC1 [Example 1-7, {6-Fluoro-4-[4-(propane-1-sulfonyl)-piperazine-1-carbonyl]-naphthalen-2-yl}-acetic acid] |
| 31.3 nM | O=C(O)Cc1cc(OC2CCN(C(=O)c3ccc(F)cc3)CC2)c2cc(F)ccc2c1 [Example 5-9, {6-Fluoro-4-[1-(4-fluoro-benzoyl)-piperidin-4-yloxy]-naphthalen-2-yl}-acetic acid] |
| 9.4 nM | Cc1c(CC(=O)O)cc2ccc(F)cc2c1C(=O)N1CCN(c2ccc(Cl)cc2)CC1 [Example 2-18, {4-[4-(4-Chloro-phenyl)-piperazine-1-carbonyl]-6-fluoro-3-methyl-naphthalen-2-yl}-acetic acid] |
| 65.7 nM | COc1cc(OC)cc(N2CCN(C(=O)c3c(C)c(CC(=O)O)cc4ccc(F)cc34)CC2)c1 [Example 2-14, {4-[4-(3,5-Dimethoxy-phenyl)-piperazine-1-carbonyl]-6-fluoro-3-methyl-naphthalen-2-yl}-acetic acid] |
| 3.7 nM | Cc1c(CC(=O)O)cc2ccc(F)cc2c1C(=O)N1CCN(S(=O)(=O)c2ccccc2)CC1 [Example 1-9, [4-(4-Benzenesulfonyl-piperazine-1-carbonyl)-6-fluoro-3-methyl-naphthalen-2-yl]-acetic acid] |
| 4.3 nM | O=C(O)Cc1cc(OC2CCN(C(=O)Nc3ccccc3F)CC2)c2cc(F)ccc2c1 [Example 6-2, {6-Fluoro-4-[1-(2-fluoro-phenylcarbomoyl)-piperidin-4-yloxy]-naphthalen-2-yl}-acetic acid] |
| 63.5 nM | Cc1c(CC(=O)O)cc2ccc(F)cc2c1C(=O)N1CCN(c2c(Cl)cncc2Cl)CC1 [Example 2-23, {4-[4-(3,5-Dichloro-pyridin-4-yl)-piperazine-1-carbonyl]-6-fluoro-3-methyl-naphthalen-2-yl}-acetic acid] |
| 127 nM | Cc1c(CC(=O)O)cc2ccc(F)cc2c1C(=O)N1CCN(c2ccccc2Cl)CC1 [Example 2-20, {4-[4-(2-Chloro-phenyl)-piperazine-1-carbonyl]-6-fluoro-3-methyl-naphthalen-2-yl}-acetic acid] |
| 30.5 nM | CC(C)S(=O)(=O)N1CCC(Oc2cc(CC(=O)O)cc3ccc(F)cc23)CC1 [Example 4-3, {6-Fluoro-4-[1-(propane-2-sulfonyl)-piperidin-4-yloxy]-naphthalen-2-yl}-acetic acid] |
| 18.2 nM | Cc1c(CC(=O)O)cc2ccc(F)cc2c1C(=O)N1CCN(c2ccc(F)cc2)CC1 [Example 2-1, {6-Fluoro-4-[4-(4-fluoro-phenyl)-piperazine-1-carbonyl]-3-methyl-naphthalen-2-yl}-acetic acid] |
| 5 nM | O=C(O)Cc1cc(OC2CCN(S(=O)(=O)c3cccc(F)c3)CC2)c2cc(F)ccc2c1 [Example 4-7, {6-Fluoro-4-[1-(3-fluoro-benzenesulfonyl)-piperidin-4-yloxy]-naphthalen-2-yl}-acetic acid] |
| 7.6 nM | Cc1c(CC(=O)O)cc2ccc(F)cc2c1C(=O)N1CCN(S(=O)(=O)C(F)(F)F)CC1 [Example 1-5, [6-Fluoro-3-methyl-4-(4-trifluoromethanesulfonyl-piperazine-1-carbonyl)-naphthalen-2-yl]-acetic acid] |
| 19.4 nM | O=C(O)Cc1cc(OC2CCN(C(=O)c3ccccc3F)CC2)c2cc(F)ccc2c1 [Example 5-7, {6-Fluoro-4-[1-(2-fluoro-benzoyl)-piperidin-4-yloxy]-naphthalen-2-yl}-acetic acid] |
| 3.2 nM | O=C(O)Cc1cc(OC2CCN(S(=O)(=O)c3ccccc3)CC2)c2cc(F)ccc2c1 [Example 4-6, [4-(1-Benzenesulfonyl-piperidin-4-yloxy)-6-fluoro-naphthalen-2-yl]-acetic acid] |
| 67.8 nM | O=C(O)Cc1cc(OC2CCN(C(=O)C3CC3)CC2)c2cc(F)ccc2c1 [Example 5-4, [4-(1-Cyclopropanecarbonyl-piperidin-4-yloxy)-6-fluoro-naphthalen-2-yl]-acetic acid] |
| 2.6 nM | Cc1c(CC(=O)O)cc2ccc(F)cc2c1C(=O)N1CCN(c2ccccn2)CC1 [Example 2-2, [6-Fluoro-3-methyl-4-(4-pyridin-2-yl-piperazine-1-carbonyl)-naphthalen-2-yl]-acetic acid] |
| 18.9 nM | Cc1c(CC(=O)O)cc2ccc(F)cc2c1C(=O)N1CCN(c2cccc(Cl)c2)CC1 [Example 2-21, {4-[4-(3-Chloro-phenyl)-piperazine-1-carbonyl]-6-fluoro-3-methyl-naphthalen-2-yl}-acetic acid] |
| 57.1 nM | Cc1c(CC(=O)O)cc2ccc(F)cc2c1C(=O)N1CCN(c2cccc(C(F)(F)F)c2)CC1 [Example 2-7, {6-Fluoro-3-methyl-4-[4-(3-trifluoromethyl-phenyl)-piperazine-1-carbonyl]-naphthalen-2-yl}-acetic acid] |
| 2.6 nM | Cc1c(CC(=O)O)cc2ccc(F)cc2c1C(=O)N1CCN(S(=O)(=O)c2ccc(F)c(F)c2)CC1 [Example 1-15, {4-[4-(3,4-Difluoro-benzenesulfonyl)-piperazine-1-carbonyl]-6-fluoro-3-methyl-naphthalen-2-yl}-acetic acid] |
